What was measured:
[1] = tested on: hypertensive effect of TXA2 mimetic agent U46619; experiment: U46619-induced hypertensive effect in anaesthetised rats, test (d); assay type: in vivo, rats (Alderley Park strain)
Procedure: (d) Male rats (Alderley Park strain) are anaesthetised with sodium pentobarbital and blood pressure is monitored at the carotid artery. The TXA2 mimetic agent U46619 is administered intravenously via the jugular vein and an ED50 (dose necessary to produce 50% of the maximum hypertensive effect) is established (n=3). The ED50 for U46619 is approximately 5 μg/kg. A test compound is then administered either intravenously via the jugular vein or orally via a cannula directly into the stomach and the animal challenged with an ED50 dose of U46619, five minutes after dosing with test compound and then successively every ten minutes until the hypertensive effect of U46619 is no longer blocked.

[2] = tested on: rabbit aortal strip, agonist TXA2 mimetic agent U46619; experiment: rabbit aortal strip model, test (a); design: species or system isolated tissue
Excerpt: (a) The rabbit aortal strip model devised by Piper and Vane (Nature, 1969, 223, 29-35) using as agonist the TXA2 mimetic agent known as U46619 (R. L. Jones et alia in "Chemistry, Biochemistry and Pharmacological Activity of Prostanoids", eds. S. M. Roberts and F. Scheinmann, at p.211; Pergamon Press, 1979);

[3] = tested on: bronchoconstriction induced by TXA2 mimetic agent U46619; experiment: bronchoconstriction test, Konzett-Rossler guinea-pig model, test (c); assay type: in vivo; conditions: some 3 hours following an oral dose of 5mg/kg, U46619 i.v. 1-1.5 μg/kg
Procedure: (c) a bronchoconstriction test involving measuring the inhibition by a test compound of the bronchoconstriction induced in the Konzett-Rossler guinea-pig model (as modified by Collier and James, Brit. J. Pharmacol., 1967, 30, 283-307) by intravenous administration of the TXA2 mimetic agent, U46619 at 1-1.5 μg/kg.

| Compound | inhibition of the hypertensive effect ([1]; test (d), 80-90 minutes following an oral dose of 50 mg./kg., challenge with ED50 dose of U46619) | pA2 [2] | reduction of bronchoconstriction [3] | ED50 ([1]; Rattus norvegicus, iv, intravenously via the jugular vein, anaesthetised male rats, n=3, read-out: ED50 (dose necessary to produce 50% of the maximum hypertensive effect)) [µg/kg] |
| --- | --- | --- | --- | --- |
| CCC[C@H]1OC[C@H](c2ccccc2C)[C@@H](CCCCCCC(=O)O)O1 (relative stereo) [Example 12, 7-([2,4-cis,4,5-trans]-2-n-propyl-5-o-tolyl-1,3-dioxan-4-yl)heptanoic acid] | complete inhibition of the hypertensive effect | 6.7 | significant reduction of bronchoconstriction | – |
| CCCCC[C@H](O)/C=C/[C@@H]1[C@@H](C/C=C\CCCC(=O)O)[C@H]2CO[C@@H]1C2 [Example U46619, reference compound] | – | – | – | ~5 |

Source: US4704399A, “1,3-dioxan-4-ylalkenoic acids” (Imperial Chemical Industries PLC, priority 1983, dated 1987)
